From paper PMC5862592, “CDK8/19 inhibition induces premature G1/S transition and ATR-dependent cell death in prostate cancer cells” (Oncotarget, 2018)
Read-outs that look alike come from different tables or passages of the source.

Experiments:
Experiment in all cases: biochemical
Set-up in all cases: KINOMEscan active site-directed competition binding assay (DiscoveRx), 456 kinases, per cent of control at 300 nM
Conditions in all cases: read-out: Percent of Control (%)
MEK6 = target: T1, MEK6 (Homo sapiens, UniProt P52564)
T1 construct: gene MAP2K6
Summary of the method: (§1)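 Values reflect active-site competition binding from a screen of 456 kinases, with test compounds at a fixed 300 nmol/L.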

BRSK2 = BRSK2 (Homo sapiens, UniProt Q8IWQ3)
Summary of the method: as §1

NEK6 = NEK6 (Homo sapiens, UniProt Q9HC98)
Summary of the method: as §1

LRRK2 = LRRK2 (Homo sapiens, UniProt Q5S007)
Summary of the method: as §1

KIT(L576P) = KIT(L576P) (Homo sapiens, UniProt P10721, L576P)
Summary of the method: as §1

ARK5 = target: T2, ARK5 (Homo sapiens, UniProt O60285)
T2 construct: gene NUAK1
Summary of the method: as §1

AKT1 = AKT1 (Homo sapiens, UniProt P31749)
Summary of the method: as §1

PIK3CA(E545A) = PIK3CA(E545A) (Homo sapiens, UniProt P42336, E545A)
Summary of the method: as §1

HIPK1 = HIPK1 (Homo sapiens, UniProt Q86Z02)
Summary of the method: as §1

CDKL2 = CDKL2 (Homo sapiens, UniProt Q92772)
Summary of the method: as §1

IKK-beta = target: T3, IKK-beta (Homo sapiens, UniProt O14920)
T3 construct: gene IKBKB
Summary of the method: as §1

MAP4K5 = MAP4K5 (Homo sapiens, UniProt Q9Y4K4)
Summary of the method: as §1

CLK1 = CLK1 (Homo sapiens, UniProt P49759)
Summary of the method: as §1

TAOK1 = TAOK1 (Homo sapiens, UniProt Q7L7X3)
Summary of the method: as §1

KIT = KIT (Homo sapiens, UniProt P10721)
Summary of the method: as §1

PDGFRA = PDGFRA (Homo sapiens, UniProt P16234)
Summary of the method: as §1

BRAF(V600E) = BRAF(V600E) (Homo sapiens, UniProt P15056, V600E)
Summary of the method: as §1

MYLK4 = MYLK4 (Homo sapiens, UniProt Q86YV6)
Summary of the method: as §1

TAK1 = target: T4, TAK1 (Homo sapiens, UniProt O43318)
T4 construct: gene MAP3K7
Summary of the method: as §1

ABL1-phosphorylated = target: T5, ABL1-phosphorylated (Homo sapiens, UniProt P00519)
T5 construct: phosphorylated
Summary of the method: as §1

ACVR1 = ACVR1 (Homo sapiens, UniProt Q04771)
Summary of the method: as §1

DAPK3 = DAPK3 (Homo sapiens, UniProt O43293)
Summary of the method: as §1

Chain of KIT (P10721 whole entry): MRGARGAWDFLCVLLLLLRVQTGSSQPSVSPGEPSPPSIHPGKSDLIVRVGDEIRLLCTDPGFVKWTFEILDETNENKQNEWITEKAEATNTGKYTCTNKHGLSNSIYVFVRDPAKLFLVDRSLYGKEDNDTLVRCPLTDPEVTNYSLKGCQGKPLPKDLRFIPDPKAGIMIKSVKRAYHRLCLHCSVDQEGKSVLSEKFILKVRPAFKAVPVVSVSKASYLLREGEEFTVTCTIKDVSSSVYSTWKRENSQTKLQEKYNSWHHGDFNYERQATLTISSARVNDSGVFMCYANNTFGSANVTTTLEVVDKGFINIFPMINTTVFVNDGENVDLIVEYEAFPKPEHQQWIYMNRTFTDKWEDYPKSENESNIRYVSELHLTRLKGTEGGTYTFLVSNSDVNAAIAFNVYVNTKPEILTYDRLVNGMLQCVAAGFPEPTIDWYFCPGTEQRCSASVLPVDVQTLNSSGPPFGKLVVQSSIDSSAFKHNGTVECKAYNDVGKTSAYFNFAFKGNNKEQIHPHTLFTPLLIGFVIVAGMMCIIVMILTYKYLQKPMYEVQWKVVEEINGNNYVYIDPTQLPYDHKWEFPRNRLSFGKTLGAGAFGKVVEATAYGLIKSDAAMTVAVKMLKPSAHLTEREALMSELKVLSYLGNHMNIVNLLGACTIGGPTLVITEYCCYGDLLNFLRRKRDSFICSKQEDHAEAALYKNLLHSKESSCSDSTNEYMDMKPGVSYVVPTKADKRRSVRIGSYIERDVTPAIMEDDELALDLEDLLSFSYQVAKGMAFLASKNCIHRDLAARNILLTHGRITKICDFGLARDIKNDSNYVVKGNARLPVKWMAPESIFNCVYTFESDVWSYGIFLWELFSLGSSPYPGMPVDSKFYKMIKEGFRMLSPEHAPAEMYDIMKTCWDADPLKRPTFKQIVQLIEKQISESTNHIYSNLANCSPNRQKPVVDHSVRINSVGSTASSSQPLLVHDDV
Chain of NEK6 (Q9HC98 whole entry): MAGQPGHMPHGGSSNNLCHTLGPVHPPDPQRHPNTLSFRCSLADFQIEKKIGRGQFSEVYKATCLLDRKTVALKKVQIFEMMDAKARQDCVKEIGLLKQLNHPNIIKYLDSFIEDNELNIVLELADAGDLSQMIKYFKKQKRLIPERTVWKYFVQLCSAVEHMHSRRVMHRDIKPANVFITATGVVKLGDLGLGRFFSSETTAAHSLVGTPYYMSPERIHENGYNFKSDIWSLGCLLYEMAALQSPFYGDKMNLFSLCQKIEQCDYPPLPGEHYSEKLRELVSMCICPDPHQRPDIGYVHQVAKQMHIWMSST
Chain of MYLK4 (Q86YV6 whole entry): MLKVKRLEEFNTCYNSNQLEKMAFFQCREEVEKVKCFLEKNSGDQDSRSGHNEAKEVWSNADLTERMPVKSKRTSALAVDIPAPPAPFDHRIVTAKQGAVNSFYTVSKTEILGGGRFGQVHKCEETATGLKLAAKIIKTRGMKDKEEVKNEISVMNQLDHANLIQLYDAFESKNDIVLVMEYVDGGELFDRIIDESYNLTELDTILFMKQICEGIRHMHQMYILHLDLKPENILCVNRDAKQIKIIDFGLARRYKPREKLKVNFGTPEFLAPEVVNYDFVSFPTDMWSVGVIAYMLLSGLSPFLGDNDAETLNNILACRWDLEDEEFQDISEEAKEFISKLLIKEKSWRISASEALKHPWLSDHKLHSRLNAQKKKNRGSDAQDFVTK
Chain of DAPK3 (O43293 whole entry): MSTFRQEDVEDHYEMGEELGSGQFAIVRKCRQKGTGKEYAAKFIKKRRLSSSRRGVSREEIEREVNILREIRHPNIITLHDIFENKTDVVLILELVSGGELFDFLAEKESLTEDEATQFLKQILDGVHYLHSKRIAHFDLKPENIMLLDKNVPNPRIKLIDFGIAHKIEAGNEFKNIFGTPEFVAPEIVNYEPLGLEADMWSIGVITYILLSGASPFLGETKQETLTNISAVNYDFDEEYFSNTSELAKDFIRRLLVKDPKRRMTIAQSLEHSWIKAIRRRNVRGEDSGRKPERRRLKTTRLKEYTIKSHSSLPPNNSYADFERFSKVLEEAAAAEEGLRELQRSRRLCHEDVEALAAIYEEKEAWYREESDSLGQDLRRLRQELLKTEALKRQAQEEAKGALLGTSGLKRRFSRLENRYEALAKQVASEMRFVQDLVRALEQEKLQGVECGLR
Chain of KIT(L576P) (P10721 whole entry L576P): as the sequence (P10721 whole entry) above, with L576P counted along it
T5 sequence (P00519 whole entry): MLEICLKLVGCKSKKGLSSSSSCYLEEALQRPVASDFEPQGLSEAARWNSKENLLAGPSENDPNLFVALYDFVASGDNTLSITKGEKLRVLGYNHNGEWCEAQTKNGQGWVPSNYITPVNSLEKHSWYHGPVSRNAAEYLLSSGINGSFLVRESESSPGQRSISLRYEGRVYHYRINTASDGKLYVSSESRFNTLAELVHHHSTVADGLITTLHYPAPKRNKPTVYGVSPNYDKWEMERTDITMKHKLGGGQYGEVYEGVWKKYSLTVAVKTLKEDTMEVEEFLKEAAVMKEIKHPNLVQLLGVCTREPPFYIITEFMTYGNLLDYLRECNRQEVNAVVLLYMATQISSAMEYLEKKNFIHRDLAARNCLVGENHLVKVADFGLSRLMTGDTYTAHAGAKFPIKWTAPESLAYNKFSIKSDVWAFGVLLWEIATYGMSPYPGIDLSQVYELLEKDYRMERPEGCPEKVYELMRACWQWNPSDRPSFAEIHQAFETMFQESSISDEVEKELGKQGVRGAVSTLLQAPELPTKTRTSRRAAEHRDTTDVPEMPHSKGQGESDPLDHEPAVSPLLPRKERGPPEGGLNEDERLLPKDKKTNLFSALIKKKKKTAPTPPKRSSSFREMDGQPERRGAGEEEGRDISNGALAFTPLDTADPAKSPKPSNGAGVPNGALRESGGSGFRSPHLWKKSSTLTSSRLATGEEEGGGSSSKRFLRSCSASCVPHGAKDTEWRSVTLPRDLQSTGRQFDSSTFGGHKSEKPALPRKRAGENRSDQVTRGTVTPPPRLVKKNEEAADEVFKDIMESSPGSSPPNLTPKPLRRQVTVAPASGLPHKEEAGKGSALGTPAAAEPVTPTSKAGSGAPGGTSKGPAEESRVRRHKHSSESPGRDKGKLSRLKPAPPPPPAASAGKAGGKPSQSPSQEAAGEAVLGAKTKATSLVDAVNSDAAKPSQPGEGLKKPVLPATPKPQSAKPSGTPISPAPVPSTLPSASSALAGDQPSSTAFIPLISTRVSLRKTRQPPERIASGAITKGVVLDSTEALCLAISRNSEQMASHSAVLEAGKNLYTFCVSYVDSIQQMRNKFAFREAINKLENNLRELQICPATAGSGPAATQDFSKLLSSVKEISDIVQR
Chain of BRSK2 (Q8IWQ3 whole entry): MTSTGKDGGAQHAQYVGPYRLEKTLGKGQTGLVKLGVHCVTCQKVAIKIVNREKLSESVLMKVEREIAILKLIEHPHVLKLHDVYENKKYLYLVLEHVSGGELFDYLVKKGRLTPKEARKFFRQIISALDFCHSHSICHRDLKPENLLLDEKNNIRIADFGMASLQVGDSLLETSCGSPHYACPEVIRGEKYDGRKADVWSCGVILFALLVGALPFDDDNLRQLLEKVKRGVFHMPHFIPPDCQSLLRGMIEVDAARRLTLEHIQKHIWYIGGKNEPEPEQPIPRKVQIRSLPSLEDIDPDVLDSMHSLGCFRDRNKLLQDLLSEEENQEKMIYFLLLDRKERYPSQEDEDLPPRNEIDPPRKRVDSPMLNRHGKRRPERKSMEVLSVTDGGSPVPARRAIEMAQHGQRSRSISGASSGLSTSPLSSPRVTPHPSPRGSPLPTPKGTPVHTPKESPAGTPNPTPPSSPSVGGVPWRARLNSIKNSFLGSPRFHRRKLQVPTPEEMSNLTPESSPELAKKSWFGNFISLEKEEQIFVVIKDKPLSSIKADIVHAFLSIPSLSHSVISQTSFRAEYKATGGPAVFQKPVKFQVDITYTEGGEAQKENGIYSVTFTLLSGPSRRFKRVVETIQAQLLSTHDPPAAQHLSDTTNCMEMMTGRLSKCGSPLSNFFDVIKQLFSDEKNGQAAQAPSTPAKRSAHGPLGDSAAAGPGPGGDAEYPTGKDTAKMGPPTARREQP
T1 sequence (P52564 whole entry): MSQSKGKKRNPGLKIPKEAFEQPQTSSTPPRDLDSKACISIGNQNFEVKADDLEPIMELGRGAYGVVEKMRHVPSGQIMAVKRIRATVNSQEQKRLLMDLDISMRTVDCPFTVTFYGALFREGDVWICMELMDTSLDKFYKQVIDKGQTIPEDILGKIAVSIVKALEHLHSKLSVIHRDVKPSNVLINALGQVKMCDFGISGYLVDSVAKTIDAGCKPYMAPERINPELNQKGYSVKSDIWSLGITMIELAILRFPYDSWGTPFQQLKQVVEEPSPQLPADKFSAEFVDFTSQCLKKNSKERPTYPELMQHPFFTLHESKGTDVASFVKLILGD
Chain of CLK1 (P49759 whole entry): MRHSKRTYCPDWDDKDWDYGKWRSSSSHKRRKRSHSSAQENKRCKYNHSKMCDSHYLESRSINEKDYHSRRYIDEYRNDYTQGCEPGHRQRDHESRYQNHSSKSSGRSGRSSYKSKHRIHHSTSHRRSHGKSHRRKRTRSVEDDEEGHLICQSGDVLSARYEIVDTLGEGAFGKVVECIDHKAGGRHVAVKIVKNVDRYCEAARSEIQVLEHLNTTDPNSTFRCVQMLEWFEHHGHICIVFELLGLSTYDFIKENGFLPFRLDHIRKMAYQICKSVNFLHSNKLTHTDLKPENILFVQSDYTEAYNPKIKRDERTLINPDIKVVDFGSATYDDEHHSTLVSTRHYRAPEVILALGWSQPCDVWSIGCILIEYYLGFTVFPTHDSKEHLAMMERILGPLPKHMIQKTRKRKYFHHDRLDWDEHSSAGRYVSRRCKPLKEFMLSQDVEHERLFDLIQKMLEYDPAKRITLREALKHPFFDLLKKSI

How did the remaining binding at 0.3 µM (MEK6) turn out when Cc1ncccc1Oc1sc(C(N)=O)c2c1-c1c(cnn1C)CC2 [T-474, 1-methyl-8-((2-methylpyridin-3-yl)oxy)-4,5-dihydro-1H-thieno[3,4-g]indazole-6-carboxamide] was run?
The remaining binding at 0.3 µM was 92%.

And the remaining binding at 0.3 µM (BRSK2)?
Its remaining binding at 0.3 µM is 87%.

What about the remaining binding at 0.3 µM (NEK6) of the same compound?
Its remaining binding at 0.3 µM is 100%.

What about the remaining binding at 0.3 µM (LRRK2) of the same compound?
Its remaining binding at 0.3 µM is 95%.

What about the remaining binding at 0.3 µM (KIT(L576P)) of the same compound?
The remaining binding at 0.3 µM was 100%.

What about the remaining binding at 0.3 µM (ARK5) of the same compound?
Its remaining binding at 0.3 µM is 100%.

And the remaining binding at 0.3 µM (AKT1)?
The remaining binding at 0.3 µM was 98%.

And the remaining binding at 0.3 µM (PIK3CA(E545A))?
Its remaining binding at 0.3 µM is 69%.

What about the remaining binding at 0.3 µM (HIPK1) of the same compound?
The remaining binding at 0.3 µM was 81%.

What about the remaining binding at 0.3 µM (CDKL2) of the same compound?
The remaining binding at 0.3 µM was 100%.

And the remaining binding at 0.3 µM (IKK-beta)?
Its remaining binding at 0.3 µM is 100%.

What about the remaining binding at 0.3 µM (MAP4K5) of the same compound?
Its remaining binding at 0.3 µM is 70%.

What about the remaining binding at 0.3 µM (CLK1) of the same compound?
Its remaining binding at 0.3 µM is 32%.

What about the remaining binding at 0.3 µM (TAOK1) of the same compound?
Its remaining binding at 0.3 µM is 95%.

What about the remaining binding at 0.3 µM (KIT) of the same compound?
The remaining binding at 0.3 µM was 100%.

And the remaining binding at 0.3 µM (PDGFRA)?
The remaining binding at 0.3 µM was 96%.

And the remaining binding at 0.3 µM (BRAF(V600E))?
Its remaining binding at 0.3 µM is 100%.

And the remaining binding at 0.3 µM (MYLK4)?
The remaining binding at 0.3 µM was 90%.

And the remaining binding at 0.3 µM (TAK1)?
Its remaining binding at 0.3 µM is 100%.

And the remaining binding at 0.3 µM (ABL1-phosphorylated)?
Its remaining binding at 0.3 µM is 100%.

What about the remaining binding at 0.3 µM (ACVR1) of the same compound?
Its remaining binding at 0.3 µM is 100%.

What about the remaining binding at 0.3 µM (DAPK3) of the same compound?
The remaining binding at 0.3 µM was 100%.

For O=C(/C=C/c1cnccc1-c1ccc(F)cc1)Nc1ccc(CCc2nnco2)cc1 [T-418, (2E)-3-(4-(4-fluorophenyl)pyridin-3-yl)-N-(4-(2-(1,3,4-oxadiazol-2-yl)ethyl)phenyl)acrylamide], which remaining binding at 0.3 µM (MEK6; sheet T-418) is on record?
The remaining binding at 0.3 µM was 99%.

And the remaining binding at 0.3 µM (BRSK2; sheet T-418)?
Its remaining binding at 0.3 µM is 100%.

And the remaining binding at 0.3 µM (NEK6; sheet T-418)?
Its remaining binding at 0.3 µM is 98%.

And the remaining binding at 0.3 µM (LRRK2; sheet T-418)?
Its remaining binding at 0.3 µM is 94%.

And the remaining binding at 0.3 µM (KIT(L576P); sheet T-418)?
Its remaining binding at 0.3 µM is 100%.

What about the remaining binding at 0.3 µM (ARK5; sheet T-418) of the same compound?
Its remaining binding at 0.3 µM is 100%.

And the remaining binding at 0.3 µM (AKT1; sheet T-418)?
Its remaining binding at 0.3 µM is 85%.

And the remaining binding at 0.3 µM (PIK3CA(E545A); sheet T-418)?
Its remaining binding at 0.3 µM is 78%.

And the remaining binding at 0.3 µM (HIPK1; sheet T-418)?
The remaining binding at 0.3 µM was 75%.

And the remaining binding at 0.3 µM (CDKL2; sheet T-418)?
Its remaining binding at 0.3 µM is 100%.

And the remaining binding at 0.3 µM (IKK-beta; sheet T-418)?
The remaining binding at 0.3 µM was 100%.

And the remaining binding at 0.3 µM (MAP4K5; sheet T-418)?
The remaining binding at 0.3 µM was 85%.

And the remaining binding at 0.3 µM (CLK1; sheet T-418)?
Its remaining binding at 0.3 µM is 100%.

What about the remaining binding at 0.3 µM (TAOK1; sheet T-418) of the same compound?
Its remaining binding at 0.3 µM is 100%.

What about the remaining binding at 0.3 µM (KIT; sheet T-418) of the same compound?
The remaining binding at 0.3 µM was 100%.

And the remaining binding at 0.3 µM (PDGFRA; sheet T-418)?
The remaining binding at 0.3 µM was 97%.

What about the remaining binding at 0.3 µM (BRAF(V600E); sheet T-418) of the same compound?
The remaining binding at 0.3 µM was 100%.

And the remaining binding at 0.3 µM (MYLK4; sheet T-418)?
Its remaining binding at 0.3 µM is 80%.

And the remaining binding at 0.3 µM (TAK1; sheet T-418)?
Its remaining binding at 0.3 µM is 100%.

And the remaining binding at 0.3 µM (ABL1-phosphorylated; sheet T-418)?
Its remaining binding at 0.3 µM is 89%.

What about the remaining binding at 0.3 µM (ACVR1; sheet T-418) of the same compound?
The remaining binding at 0.3 µM was 100%.

And the remaining binding at 0.3 µM (DAPK3; sheet T-418)?
The remaining binding at 0.3 µM was 83%.
